Results on ten compounds are retold here after article PMC3510080, “Identification of Compounds with Anti-Proliferative Activity against Trypanosoma brucei brucei Strain 427 by a Whole Cell Viability Based HTS Campaign” (PLoS Neglected Tropical Diseases, 2012).

For one experiment, the system named is T.b. brucei. The experiment can be described thus: Determination of the cidal action of compounds (MIC and parasite counts). Type of experiment: cell-based, Trypanosoma brucei brucei. The following applies: for MIC: Trypanosoma brucei, minimum concentration with plateau of activity (>95%) in Alamar Blue concentration response curve, read-out: minimum inhibitory concentration (MIC); for action cidal or static at the MIC: parasites cleared by 72 hours at MIC; for incubation time at the MIC for complete clearance of T.b. brucei parasites: cell counts at 24, 48 and 72 hours (29 hours from Presto Blue). From the text:
The MIC was extrapolated as the minimum concentration at which there was a plateau of activity in the assay (>95% activity).
In general terms: Resazurin is reduced to fluorescent resorufin, in cell work by metabolically active cells.

Experiment [1] deals with T. cruzi Tulahuen strain C2C4. The experiment can be described thus: T. cruzi Tulahuen strain C2C4 β-galactosidase assay; SI versus L6 cells. The following applies: for IC50: in L6 host cells, 96 h, read-out: Compound activity T.C (IC50); for Selectivity Index T.C: relative to L6 cells. In kind it is cell-based, Trypanosoma cruzi. As for the experimental part:
L6 rat skeletal myoblasts, [29] were purchased from the American Type Culture Collection (ATCC, Rockville, MD, USA; ATCC number CRL 1458). This cell line was used for cytotoxicity testing to calculate an SI against T.b. rhodesiense and screened alongside the T.b. rhodesiense, P. falciparum, T. cruzi and L. donovani assays. L6 were also the host cells for the T. cruzi assay. Assays were performed in 96-well microtiter plates, each well containing 100 µl of RPMI 1640 medium supplemented with 1% L-glutamine (200 mM), 10% FCS, and 4000 L6 cells. Serial drug dilutions of eleven 3-fold dilution steps covering a range from 100 to 0.002 µg/ml were prepared. After 70 hours of incubation the plates were inspected under an inverted microscope to assure growth of the controls and sterile conditions. Ten µl of resazurin solution (resazurin, 12.5 mg in 100 ml double-distilled water) was then added to each well and the plates incubated for another 2 hours. Then the plates were read with a Spectramax Gemini XS microplate fluorometer (Molecular Devices Cooperation, Sunnyvale, CA, USA) using an excitation wavelength of 536 nm and an emission wavelength of 588 nm. Data was analysed using the microplate reader software Softmax Pro (Molecular Devices, USA). Podophyllotoxin was used as a positive control in the assay.
Rat skeletal myoblasts (L6 cells) were seeded in 96-well microtitre plates at 2000 cells/well in 100 µl RPMI 1640 medium with 10% FCS and 2 mM l-glutamine. After 24 hours the medium was removed and replaced by 100 µl per well containing 5000 trypomastigote forms of T. cruzi Tulahuen strain C2C4 containing the β-galactosidase (Lac Z) gene. After 48 hours the medium was removed from the wells and replaced by 100 µl fresh medium with or without a serial drug dilution of eleven 3-fold dilution steps covering a range from 100 to 0.002 µg/ml. After 96 hours of incubation the plates were inspected under an inverted microscope to assure growth of the controls and sterility. Then 50 µl of the substrate, containing chlorophenol red-β-D-galactopyranoside (CPRG) and Nonidet, was added to all wells. A colour reaction developed within 2–6 hours that could be read photometrically at 540 nm. Data were transferred into the graphic programme Softmax Pro (Molecular Devices, USA), which calculated IC50 values. The drug benznidazole was used as a positive standard in this assay.

For a further experiment, the system named is HEK293 cells. The experiment can be described thus: HEK293 Alamar Blue viability estimation assay. The settings on record: for IC50: Homo sapiens, HEK293. In kind it is cell-based, human. The procedure: T.b. brucei lister 427 cells were maintained in log phase growth in 25 cm^2 tissue culture flasks (Corning, NY, USA) by sub-culturing at either 24 or 48 hour intervals. Cells were grown in HMI-9 medium, supplemented with 10% fetal calf serum (FCS) and 100 IU/ml penicillin/streptomycin (Invitrogen, Carlsbad, California, USA) with incubation at 5% CO2 at 37°C in humidified conditions. HEK293 cells were maintained in high glucose DMEM with L-glutamine, supplemented with 1× non-essential amino acids (NEAA; Invitrogen, USA) and 1 mM sodium pyruvate. Growth conditions were in 5% CO2 at 37°C, under humidified conditions.
Cells at 80% confluence were harvested and diluted in growth medium (high glucose DMEM supplemented with 10% FCS) to 7.27×10^4 cells/ml. Under sterile conditions, 55 µl of diluted cells per well were added to a black, clear bottomed 384-well lidded plate (BD Biosciences, Bedford, MA, USA) with a Multidrop liquid handler (Thermo Scientific, Barrington, IL, USA). Incubation times, compound additions and plate read were as per the trypanosome viability assay, with the exception that Alamar Blue was diluted in HEK293 growth media before addition, and incubation of Alamar Blue at 37°C, in 5% CO2, was for 4 hours, followed by incubation at room temperature for 20 hours. The activity of compounds against HEK293 cells was used to calculate the SI of mammalian to T.b. brucei cells. The control compound for HEK293 cells was puromycin (Calbiochem, USA).
Compounds identified from primary screening were retested against both T.b. brucei and HEK293 cells in duplicate and at varying concentrations to obtain a dose-response curve. Thus, a 5 µl sample of fresh compound stock solution (5 mM in DMSO) was cherry picked into 384-well plates and diluted 1∶10 in dilution medium (high glucose DMEM without FCS). Serial dilutions of these samples were then prepared in the same media by a Minitrak robotic liquid handler (Perkin Elmer, USA). […] A screening dose of 10.4 µM was included in the dilution series to enable reconfirmation of primary screening T.b. brucei activity.
The DMSO working concentration in the serial dilutions was maintained at 5%, giving a final assay concentration of 0.42% DMSO, except for the 41.7 µM test compound solution, where as previously stated the corresponding DMSO concentration was 0.83% v/v. […] Therefore the 41.7 µM test compound sample with 0.83% v/v DMSO was not used in the T.b. brucei assay and thus the top test compound concentration in this assay was 20.8 µM.
Compound activity in the retest campaign was calculated as percentage inhibition in relation to positive and negative controls, in the same manner as the primary screening campaign. The positive controls, pentamidine (2 µM final concentration) for T.b. brucei and puromycin (8 µM final concentration) for HEK293, were both screened in whole 384-well control plates. Whole 384-well plate controls were included after every batch of 20 compound plates, and were comprised of half a plate of negative control and half a plate of positive control. The negative control was the vehicle, […]. The negative control was also included in column 24 of each compound assay plate to determine signal variation from plate to plate and to calculate compound activity. The exception was the 41.7 µM compound dose used in the HEK293 assay. In these plates column 24 contained 0.83% DMSO as a negative control. A separate 384-well plate containing a 13 point dose-response of the reference compounds puromycin, pentamidine and diminazene, in triplicate, was also included per 20 compound test plate batch to estimate assay sensitivity.
These compounds were retested as in dose for N of three replicates, as described above for both T.b. brucei and HEK293.

Setting [2] is: Trypanosoma cruzi, TULAHUEN, L6, 96 h.
The mark [3] stands for this setting: pentamidine 1 µM, diminazene 40 µM.

Values after ≈ are worked out from the molar mass of the structure shown. Where two headings read alike, the source gives them in different places.

What is called IC50 is the concentration needed to halve the response being measured.

Regarding `CC(C)(C)C(=O)NCCc1csc(-c2cccc(F)c2)n1` [Compound 1], in the experiment with T.b. brucei, the MIC worked out at 3.97 µM (≈ 1.22 µg/mL) and the “action cidal or static at the MIC” value is “cidal”. In addition, the IC50 in experiment [1] (setting [2]) amounted to 2.3 µM. In experiment [1], the IC50 came out at 2.32 ± 0.0601 µM and the “Selectivity Index T.C” value was determined as 26.8. The IC50 in the experiment on HEK293 cells (read-out: Restest IC50 HEK) was 41.7 µM.
`O=C(NCCc1n[nH]c(-c2ccc(F)cc2)n1)c1cccc(F)c1` [Compound 2]: in the experiment with T.b. brucei, the MIC was found to be 19.8 µM (≈ 6.5 µg/mL) and the “action cidal or static at the MIC” value is on record as “cidal”. In addition, the IC50 in experiment [1] (setting [2]) was 19.3 ± 0.0905 µM. In addition, in experiment [1], the “Selectivity Index T.C” value is recorded as 6.20. In addition, the IC50 in the experiment with HEK293 cells (read-out: Restest IC50 HEK) was 41.7 µM.
For `CCOc1ccc(OCc2ccc(C(=O)N3CCCC(C)C3)cc2)cc1` (stereo not drawn) [Compound 3], the results for the IC50 (in experiment [1] (setting [2]); in the experiment with HEK293 cells (read-out: Restest IC50 HEK)) were 19.1 ± 5.32 µM and 41.7 µM, respectively. In addition, the “Selectivity Index T.C” value in experiment [1] stood at 2.56.
As to `Cc1cc(O)nc(-n2nc(C)cc2NC(=O)C2CCCC2)n1` [Compound 4], the IC50 in experiment [1] (setting [2]) was 15.4 ± 4.29 µM. Besides, the “Selectivity Index T.C” value in experiment [1] came to 0.0588.
The like results for `CCS(=O)(=O)N1CCCc2ccc(NS(=O)(=O)c3ccccc3F)cc21` [Compound 5] were, in that order, 14.8 ± 0.151 µM and 1.47.
With `CCC(C)NC(=O)c1nc(-c2ccccc2)cnc1N` (stereo not drawn) [Compound 6], in the experiment with T.b. brucei, the MIC was found to be 9.92 µM (≈ 2.68 µg/mL) and the “action cidal or static at the MIC” value was “cidal”. Besides, in experiment [1] (setting [2]), the IC50 worked out at 19.1 ± 5.32 µM. Also, the “Selectivity Index T.C” value in experiment [1] came out at 0.933.
Take `O=C(Nc1ccc(Cl)c(-c2nc3ncccc3o2)c1)c1ccco1` [Compound 7]: the “population remaining at the MIC, 24 hours” value with T.b. brucei (24 hours) amounted to 0.41%. In addition, in the experiment with T.b. brucei (48 hours), the “population remaining at the MIC, 48 hours” value was determined as 0.06%. Also, in the experiment with T.b. brucei, the MIC was determined as 0.99 µM (≈ 0.336 µg/mL) and the “action cidal or static at the MIC” value is recorded as “cidal”. For the same compound, the IC50 in experiment [1] (setting [2]) was found to be 0.23 ± 0.0496 µM. Besides, the IC50 with HEK293 cells (read-out: Restest IC50 HEK) is > 41.7 µM.
Turning to `CCc1ccccc1N=C(NCCN1CCOCC1)NC(=O)c1ccccc1` [Compound 8], the IC50 in experiment [1] (setting [2]) was determined as 82 µM; in experiment [1] it was 82.1 ± 1.69 µM. In addition, the “Selectivity Index T.C” value in experiment [1] is on record as 1.61.
On to `N=C(N)c1ccc(OCCCCCOc2ccc(C(=N)N)cc2)cc1` [Pentamidine, pentamidine, reference compound], for which, in the experiment with T.b. brucei, the MIC came out at 0.04 µM (≈ 0.0136 µg/mL) and the “incubation time at the MIC for complete clearance of T.b. brucei parasites” value is 72 h. Besides, in the experiment with HEK293 cells (setting [3]), the “activity in the HEK293 assay at the doses screened, rescreening” value is “neither pentamidine nor diminazene displayed activity” and the “activity in the HEK293 assay at the doses screened, retest campaign” value is recorded as “Neither pentamidine nor diminazene displayed activity”.
For the compound `COc1ccc(C[C@H](N)C(=O)N[C@H]2[C@@H](O)[C@H](n3cnc4c(N(C)C)ncnc43)O[C@@H]2CO)cc1` [Puromycin, puromycin, reference compound], in the experiment with T.b. brucei, the MIC came to 1.15 µM (≈ 0.542 µg/mL) and the “incubation time at the MIC for complete clearance of T.b. brucei parasites” value is 24 h. Moreover, the IC50 with HEK293 cells (reference compound, read-out: IC50 against HEK293, retest screening campaign) is 1.12 ± 0.155 µM. For the same compound, the IC50 in the experiment with HEK293 cells (reference compound, read-out: IC50 in HEK293 assay, rescreening of resynthesized compounds) was 0.518 ± 0.0281 µM.
